# Test results from patent US11071731B2, “Allosteric modulators of the mu opioid receptor” (Chiromics, LLC, priority 2017, dated 2021).
# Columns and labels:
# MOR [1] = molecular target: T1, MOR (Homo sapiens, UniProt P35372); format: cell-based; details: β-arrestin; EC20 EM2 agonism of MOR
# MOR [2] = molecular target: T1, MOR; experiment: EM1 concentration-response curves for β-arrestin recruitment with or without compound, full functional allosteric model; format: cell-based
# Sprague-Dawley rats = experiment: Gastrointestinal transit of charcoal bolus and stomach contents; details: morphine 10 mg/kg, compound 9 15, 30, 60 mg/kg
# [3] = Plasma concentration time-course after SC or IP dosing; format: in vivo; details: 15 mg/kg, intraperitoneal or subcutaneous, CD-1 mice, blood samples
# Procedure: To be useful as a therapeutic, a MOR PAM must not only be able to activate endogenous and non-endogenous orthosteric ligands of the MOR, it must also persist in the body in concentrations sufficient to exert its allosteric effect. To test intracorporeal persistence, murine models were chosen, based on the preponderance of data available linking endogenous opioids to analgesic mechanisms. Compound 9 (Table 10) was formulated for dosing in CD-1 mice. Two mice per group were tested and each group was administered 15 mg/kg of the compound. Concentrations of the compound were measured by mass spectrometry of blood samples.
# T1 sequence (P35372 whole entry): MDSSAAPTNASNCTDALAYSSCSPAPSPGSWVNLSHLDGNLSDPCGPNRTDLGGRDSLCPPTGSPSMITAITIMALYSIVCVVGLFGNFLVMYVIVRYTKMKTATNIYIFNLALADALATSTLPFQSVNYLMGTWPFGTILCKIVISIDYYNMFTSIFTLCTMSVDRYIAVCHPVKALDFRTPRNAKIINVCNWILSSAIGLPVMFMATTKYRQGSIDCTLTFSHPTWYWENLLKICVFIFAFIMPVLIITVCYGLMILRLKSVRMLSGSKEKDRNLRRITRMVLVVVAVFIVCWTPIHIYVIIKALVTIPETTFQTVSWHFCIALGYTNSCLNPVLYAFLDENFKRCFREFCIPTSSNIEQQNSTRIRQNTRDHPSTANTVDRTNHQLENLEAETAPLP
structure (smiles),measurement,setting,value
"Fc1cnc(Cl)nc1N1CCCCC1c1cccc(C(F)(F)F)c1 (single isomer, unassigned) [compound 9]",Max. Response,MOR [1],138
same,effective potency for PAM effect,MOR [2],0.0708 µM
same,factor of increase of the affinity (α) of EM1,MOR [2],9
same,factor of increase of the efficacy (β) of EM1,MOR [2],3
same,shift in the potency of EM1,MOR [2],concentration-dependent and saturable leftward shifts
same,"αβ product, in vitro",MOR [2]; β-arrestin endomorphin responses,27
same,stomach weight,Sprague-Dawley rats; 20 minutes after charcoal,unchanged
same,GI transit,Sprague-Dawley rats; subcutaneous 1 hour before charcoal,unchanged
same,exposure and half-life,[3],exposures and an a half-life appropriate for in vivo studies
